Experimental data as given in US12679878B2, “CRF2 receptor agonists and their use in therapy” (SANOFI, priority 2020, dated 2026).
Converted amounts (≈) assume the structure as drawn. Read-outs that look alike come from different tables or passages of the source. Starred links: 1 amine or outer side, 2 acyl side, 3 side chain; linkers in the order of their positions; H or OH if unused. Non-standard residues stand in square brackets, D forms with d. Residues, ends and D or L forms follow the SMILES beside them. Groups on a side chain read outwards from the residue. *: point of attachment. C16 diacid = O=C(O)CCCCCCCCCCCCCCC(=O)*; γGlu = O=C(O)[C@H](CCC(=O)[*:2])N[*:1]

Assays:
[1] = Buffer solubility by LC-UV, pH 7.4 phosphate and pH 4.5 acetate (Example 19.11); type: physicochemical; details: target 10 mg/mL
Method in brief: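 Powders dissolved at a target 10 mg/mL in 100 mM phosphate pH 7.4 or 100 mM acetate pH 4.5, held 1 h at room temperature, then centrifuged. Diluted supernatant analysed by LC-UV; solubility from peak area against the same compound at 0.5 mg/ml in water:acetonitrile 1:1 with 0.1% formic acid.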

[2] = In vitro plasma stability, human plasma (Example 19.11); type: in vitro ADME; design: dose or concentration left out as unconfirmed; details: 37° C.
Protocol: (§1) In vitro plasma metabolic stability was studied in male Sprague Dawley rats and human. Test compound were incubated […] for 2 hours at 37° C. At each time point (0, 0.25, 1 and 2 h), samples were prepared for analysis by means of a single step protein precipitation technique by adding 150 μL of ethanol, 0.1% formic acid to 50 μL aliquots of plasma. Samples were mixed by vortex for homogeneity and then subjected to centrifugation at 14000 rpm for 15 min. The supernatant (100 μL) was collected, diluted with 100 μL of water, 0.1% formic acid and analyzed by LC-HRMS (TripleTOF 6600+, AB Sciex). For each test compound, the area ratios at each time point were compared to the 0 h area ratio and converted to a percentage remaining.

human CRF2α receptor = biological target: T1, human CRF2α receptor (Homo sapiens, UniProt Q13324); test: cAMP agonism at human CRF2α receptor in TeloHEAC cells, FA modified peptides (Example 19.9); type: cell-based; details: 0% HSA, relative to urocortin 2
T1 construct: expressed in transfected cells; host or cells: TeloHEAC
T1 sequence (Q13324 1-411): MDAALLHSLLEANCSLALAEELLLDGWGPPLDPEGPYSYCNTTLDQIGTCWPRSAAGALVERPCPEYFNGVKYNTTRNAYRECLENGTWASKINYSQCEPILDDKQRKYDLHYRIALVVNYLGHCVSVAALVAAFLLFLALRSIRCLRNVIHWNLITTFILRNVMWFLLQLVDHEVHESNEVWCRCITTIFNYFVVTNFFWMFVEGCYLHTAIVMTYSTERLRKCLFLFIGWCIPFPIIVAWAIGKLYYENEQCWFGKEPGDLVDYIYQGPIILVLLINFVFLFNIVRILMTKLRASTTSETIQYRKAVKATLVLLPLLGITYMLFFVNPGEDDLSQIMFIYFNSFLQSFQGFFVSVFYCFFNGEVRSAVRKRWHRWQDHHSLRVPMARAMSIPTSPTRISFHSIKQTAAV
Method in brief: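 Efficacy and EC50 are referenced to 100 nM urocortin 2 as 100%, with cAMP measured as the 665/620 nm HTRF ratio after 1 h at room temperature. Compounds (0.5 mM DMSO stock, 16 twofold dilutions) acted 30 min at 37 °C on CRF2α-expressing TeloHEAC cells, buffer containing IBMX and 0% or 0.2% HSA.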

[3] = In vitro plasma stability, rat plasma (Example 19.11); type: in vitro ADME, Sprague Dawley rats; design: remaining at 2 h: dose or concentration left out as unconfirmed; details: male, Sprague Dawley, rat, plasma, 37° C.
Protocol: as §1

[4] = Chemical stability as % loss by LC-UV, 28 days 40° C. vs 5° C. (Example 19.11); type: physicochemical
Protocol: As for example 15 above, also the chemical stability of representative examples of these FA modified peptides has been assessed, using LC-UV instead of light scattering. Solubility and chemical stability were studied in 100 mM phosphate buffer (pH 7.4) and 100 mM acetate buffer (pH 4.5). Test compound powders were dissolved in both buffers at a target concentration of 10 mg/mL and incubated for 1 hour at room temperature. After centrifugation at 2500 rcf for 15 minutes, […] of supernatant was diluted with […] of the incubation buffer and analyzed by LC-UV (Acquity UPLC-DAD, Waters). Solubility was calculated by comparing the peak area of the test compound in the buffer sample with the peak area of the same compound dissolved at 0.5 mg/ml in water:acetonitrile 1:1, 0.1% formic acid.
From the centrifuged supernatant, two additional […] aliquots were collected and diluted with […] of incubation buffer. One aliquot was stored at 5° C., while the other was stored at 40° C. After 28 days, the samples were analyzed by LC-UV. Chemical stability was calculated as % loss using the following equations: • Chemical stability (as % loss)=[(purity after 28 days at 5° C.)−(purity after 28 days at 40° C.)]×100/(purity after 28 days at 5° C.) % purity=[(peak area compound)×100/(total peak area)]

CRF1R receptor = biological target: T2, CRF1R receptor (Homo sapiens, UniProt P34998); test: cAMP activity at anti-target CRF1R, CHO-K1 cell line clone 2 (Example 19.10); type: cell-based; details: for Emax: 100% = Sauvagine at 100 nM; for CRF1/CRF2 ratio: ratio of CRF1 EC50 to CRF2 EC50
T2 construct: host or cells: CHO-K1 clone 2
T2 sequence (P34998 24-415): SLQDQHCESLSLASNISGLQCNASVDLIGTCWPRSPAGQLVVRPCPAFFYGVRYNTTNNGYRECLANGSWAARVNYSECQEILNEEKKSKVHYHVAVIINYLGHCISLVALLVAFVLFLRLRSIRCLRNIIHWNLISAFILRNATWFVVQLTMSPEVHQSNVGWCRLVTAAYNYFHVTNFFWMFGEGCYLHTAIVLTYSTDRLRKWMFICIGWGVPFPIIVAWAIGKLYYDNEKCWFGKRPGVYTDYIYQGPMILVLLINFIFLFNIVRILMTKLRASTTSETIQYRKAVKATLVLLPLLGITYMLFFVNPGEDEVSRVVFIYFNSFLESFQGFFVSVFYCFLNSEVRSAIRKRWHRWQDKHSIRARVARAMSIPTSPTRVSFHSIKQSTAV
Method in brief: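 A CRF1R-overexpressing CHO-K1 line (clone 2) was grown in F12/10% FBS/G418 and frozen in aliquots before use. The cAMP assay followed the preceding procedure, with 100% activation defined by Sauvagine at 100 nM.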

[5] = pH 7.4, 100 mM phosphate buffer
[6] = 0% HSA, CRF1R CHO-K1 clone 2, read-out: EC50 [nM] 0% HSA

solubility at 1 h ([1]; pH 4.5, 100 mM acetate buffer) [µg/mL] | solubility at 1 h [1, 5] [µg/mL] | remaining at 2 h [2] [%] | EC50 (human CRF2α receptor) [nM] | remaining at 2 h [3] [%] | % loss (chemical stability) ([4]; pH 4.5) [%] | % loss (chemical stability) ([4]; pH 7.4) [%] | EC50 (CRF1R receptor; [6]) [nM] | Emax (CRF1R receptor; CRF1R CHO-K1 clone 2) [%] | EC50 (CRF1R receptor; Table 20 side-to-side comparison, read-out: CRF1 EC50) [nM] | CRF1/CRF2 ratio (CRF1R receptor) | Structure (SMILES)
8500 (≈ 1720 µM) | 8500 (≈ 1720 µM) | 100 | 2.47 | 92 | 0 | 35 | > 100 | 12 | > 100 | >500 | CC[C@H](C)[C@H](N)C(=O)N[C@H](C(=O)N[C@@H](CC(C)C)C(=O)N[C@@H](CO)C(=O)N[C@@H](CC(C)C)C(=O)N[C@@H](CC(=O)O)C(=O)N[C@@H](C(=O)N1CCC[C@H]1C(=O)N[C@H](C(=O)N[C@@H](CCCCN)C(=O)N[C@@H](CC(C)C)C(=O)N[C@@H](CCCCNC(=O)CC[C@H](NC(=O)CCCCCCCCCCCCCCC(=O)O)C(=O)O)C(=O)N[C@@H](CCC(N)=O)C(=O)N[C@H](C(=O)N[C@@H](CC(C)C)C(=O)N[C@@H](CC(C)C)C(=O)N[C@@H](CCCCN)C(=O)N[C@@H](CCC(N)=O)C(=O)N[C@@H](CCC(=O)O)C(=O)N[C@@H](CCCNC(=N)N)C(=O)N[C@@H](CCC(N)=O)C(=O)N[C@@H](CCCCN)C(=O)N[C@@H](CCCCN)C(=O)N[C@@H](CCC(N)=O)C(=O)N[C@@H](CCCNC(=N)N)C(=O)N[C@@H](CCC(=O)O)C(=O)N[C@@H](CCC(N)=O)C(=O)N[C@@H](C)C(=O)N[C@@H](CCC(=O)O)C(=O)N[C@@H](CCCCN)C(=O)N[C@@H](CC(N)=O)C(=O)N[C@@H](CCCCN)C(=O)N[C@@H](CCC(N)=O)C(=O)N[C@H](C(=O)N[C@@H](CC(C)C)C(=O)N[C@@H](CCC(=O)O)C(=O)N[C@@H](CCC(N)=O)C(=O)N[C@H](C(N)=O)C(C)C)[C@@H](C)CC)[C@@H](C)CC)[C@@H](C)CC)C(C)C)C(C)C [compound 190] (H-IVLSLD[dV]PIKLK([γGlu-C16 diacid])QILLKQERQKKQREQAEKNKQILEQV-NH2; N-terminus assumed)
8500 (≈ 1740 µM) | 9000 (≈ 1840 µM) | 96 | 2.68 | 85 | 0 | 54 | > 100 | 12.5 | – | – | CC[C@H](C)[C@H](N)C(=O)N[C@H](C(=O)N[C@@H](CC(C)C)C(=O)N[C@@H](CO)C(=O)N[C@@H](CC(C)C)C(=O)N[C@@H](CC(=O)O)C(=O)N[C@@H](C(=O)N1CCC[C@H]1C(=O)N[C@H](C(=O)N[C@@H](CCCCN)C(=O)N[C@@H](CC(C)C)C(=O)N[C@@H](CCCCNC(=O)CC[C@H](NC(=O)CCCCCCCCCCCCCCC(=O)O)C(=O)O)C(=O)N[C@@H](CCC(N)=O)C(=O)N[C@H](C(=O)N[C@@H](CC(C)C)C(=O)N[C@@H](CC(C)C)C(=O)N[C@@H](CCCCN)C(=O)N[C@@H](CCC(N)=O)C(=O)N[C@@H](CCC(=O)O)C(=O)N[C@@H](CCCNC(=N)N)C(=O)N[C@@H](CCC(N)=O)C(=O)N[C@@H](CCCCN)C(=O)N[C@@H](CCCCN)C(=O)N[C@@H](CCC(N)=O)C(=O)N[C@@H](CCCNC(=N)N)C(=O)N[C@@H](CCC(=O)O)C(=O)N[C@@H](CCCCN)C(=O)N[C@@H](C)C(=O)N[C@@H](CCC(=O)O)C(=O)N[C@@H](CCCCN)C(=O)N[C@@H](CC(N)=O)C(=O)N[C@@H](CCCCN)C(=O)N[C@@H](CCC(N)=O)C(=O)N[C@H](C(=O)N[C@@H](CC(C)C)C(=O)N[C@@H](C)C(=O)N[C@@H](CCC(N)=O)C(=O)N[C@H](C(N)=O)C(C)C)[C@@H](C)CC)[C@@H](C)CC)[C@@H](C)CC)C(C)C)C(C)C [compound 191] (H-IVLSLD[dV]PIKLK([γGlu-C16 diacid])QILLKQERQKKQREKAEKNKQILAQV-NH2)
8400 (≈ 1720 µM) | 7900 (≈ 1610 µM) | 95 | 0.83 | 109 | 0 | 49 | – | – | – | 68 | CC[C@H](C)[C@H](N)C(=O)N[C@H](C(=O)N[C@@H](CC(C)C)C(=O)N[C@@H](CO)C(=O)N[C@@H](CC(C)C)C(=O)N[C@@H](CC(=O)O)C(=O)N[C@@H](C(=O)N1CCC[C@H]1C(=O)N[C@H](C(=O)N[C@@H](CCCCN)C(=O)N[C@@H](CC(C)C)C(=O)N[C@@H](CCCCNC(=O)CC[C@H](NC(=O)CCCCCCCCCCCCCCC(=O)O)C(=O)O)C(=O)N[C@@H](CCC(N)=O)C(=O)N[C@H](C(=O)N[C@@H](CC(C)C)C(=O)N[C@@H](CC(C)C)C(=O)N[C@@H](CCCCN)C(=O)N[C@@H](CCC(N)=O)C(=O)N[C@@H](CCC(=O)O)C(=O)N[C@@H](CCCNC(=N)N)C(=O)N[C@@H](CCC(N)=O)C(=O)N[C@@H](CCCCN)C(=O)N[C@@H](CCCCN)C(=O)N[C@@H](CCC(N)=O)C(=O)N[C@@H](CCCNC(=N)N)C(=O)N[C@@H](CCC(N)=O)C(=O)N[C@@H](CCC(N)=O)C(=O)N[C@@H](C)C(=O)N[C@@H](CCC(=O)O)C(=O)N[C@@H](CCCCN)C(=O)N[C@@H](CC(N)=O)C(=O)N[C@@H](CCCCN)C(=O)N[C@@H](CCC(N)=O)C(=O)N[C@H](C(=O)N[C@@H](CC(C)C)C(=O)N[C@@H](C)C(=O)N[C@@H](CCC(N)=O)C(=O)N[C@H](C(N)=O)C(C)C)[C@@H](C)CC)[C@@H](C)CC)[C@@H](C)CC)C(C)C)C(C)C [compound 192] (H-IVLSLD[dV]PIKLK([γGlu-C16 diacid])QILLKQERQKKQRQQAEKNKQILAQV-NH2; N-terminus assumed)
